Measured values from patent US20160193240A1, “Ulmoside-A: Useful For Prevention Or Cure Of Metabolic Diseases” (COUNCIL OF SCIENTIFIC & INDUSTRIAL RESEARCH, priority 2013, published 2016).

Assays:
[1] = target: T1, AdipoR1 (Homo sapiens, UniProt Q96A54); assay: Radio-ligand saturation binding assay with 125I-ULMA, CHO cells transfected with AdipoR1
T1 construct: expressed in transfected cells; host or cells: Chinese Hamster Ovary cells (ECACC 85050302), transient transfection with Lipofectamine LTX
T1 sequence (Q96A54 1-375): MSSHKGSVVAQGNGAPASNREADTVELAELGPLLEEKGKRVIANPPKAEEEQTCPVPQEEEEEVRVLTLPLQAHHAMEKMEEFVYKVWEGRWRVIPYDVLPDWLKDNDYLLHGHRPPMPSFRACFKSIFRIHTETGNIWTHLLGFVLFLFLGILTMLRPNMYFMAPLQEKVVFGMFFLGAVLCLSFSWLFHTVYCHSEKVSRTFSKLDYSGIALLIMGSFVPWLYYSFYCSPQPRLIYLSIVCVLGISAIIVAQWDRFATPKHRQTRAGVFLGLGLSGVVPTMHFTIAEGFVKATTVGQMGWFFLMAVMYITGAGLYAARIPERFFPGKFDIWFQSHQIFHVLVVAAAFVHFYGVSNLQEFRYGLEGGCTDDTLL
Protocol: D. CHO cells transfected with empty vector or AdipoR1 or R2 expression vectors were incubated with various concentrations of ^125I-ULMA for 2 h at 4° C. Following washes, cells were lysed and count per minute was analyzed in a gamma counter. 200 fold molar excess of unlabeled ULMA was used for each concentration of radiolabeled ULMA for determining nonspecific activity. Count per minutes were normalized with total cellular protein content followed by further normalization with non-specific activity and plotted. Data is mean±SEM from three experiments performed in triplicates.
Further validation of AdipoR-ULMA interaction and its quantitation was done using a radio-ligand saturation binding assay using ^125I-ULMA. ULMA was first radiolabeled using chloramines-T method. 10 μl of ^125I (20 MBq; BARC, Mumbai, India) was added to 100 μg GTDF in 5% acetic acid/methanol, then chloramine-T (Sigma, 4 μg in MilliQ H2O) was added, and the mixture was allowed to react at room temperature (24° C.) for 5 min. […] was used for protein estimation using standard Bradford assay and rest of the lysate was used for measuring radioactivity in a gamma-counter (Cole Palmer). The count per minute was normalized with protein concentration and was further normalized with non specific binding, which was determined for every concentration of ^125I-ULMA, using 200 fold molar excess of unlabeled ULMA.

[2] = test system: C2C12 myotubes; assay: Mitochondrial DNA content by QRT-PCR in C2C12 myotubes; format: cell-based, mouse; settings: 10 nM, 72 hours
Protocol: D. ULMA increases mitochondrial DNA content. C2C12 myotubes in 6 well plates were treated with vehicle (0.1% vol/vol DMSO) or 10 nM ULMA (in DMSO) for 72 h. Following which, total cellular DNA was isolated from these cells by standard procedure (using a genomic DNA isolation kit; Macherey Nagel; according to manufacturer's instructions) and the mitochondrial DNA content was measured by QRT-PCR based measurement of mitochondrial coxII (Mit-CoxII) and cytochrome b (Cytb) and normalized with genomic glycerol three phosphate dehydrogenase DNA level. Data represent mean±SEM from three independent experiments performed in triplicates. *p<0.05 as determined by two tailed unpaired student's t-test.
Adiponectin is also known to activate PGC-1α by indirectly deacetylating this protein through activation of sirt1 (M. Iwabu, T. Yamauchi, M. Okada-Iwabu, K. Sato, T. Nakagawa, M. Funata, M. Yamaguchi, S. Namiki, R. Nakayama, M. Tabata, H. Ogata, N. Kubota, I. Takamoto, Y. K. Hayashi, N. Yamauchi, H. Waki, M. Fukayama, I. Nishino, K. Tokuyama, K. Ueki, Y. Oike, S. Ishii, K. Hirose, T. Shimizu, K. Touhara, T. Kadowaki. Nature; 464(7293): 1313-1319. 2010), therefore PGC-1α acetylation status following ULMA treatment was checked in C2C12 cells. C2C12 myotubes plated in 10 cm dish were treated with vehicle (DMSO) or 10 nM ULMA in DMSO for 6 hours. […]

Structure (SMILES): O=C1c2c(cc(O)c([C@@H]3O[C@H](CO)[C@@H](O)[C@H](O)[C@H]3O)c2O)O[C@@H](c2ccc(O)c(O)c2)[C@@H]1O [ULMA, (2S,3S)-(+)-3′,4′,5,7-tetrahydroxydihydroflavonol-6-C-β-D-glucopyranoside]
- maximum binding (BMAX) [1]: 1410 fmol/mg of protein
- Kd ([1]; 2 hours, ice cold, read-out: dissociation constant (Kd)): 4.9 nM
- Cytochrome B (Cytb) DNA level [2]: enhanced
- mitochondrial cytochrome oxidase II (COX-II) DNA level [2]: enhanced
